According to US20050187240A1, “Aaptamine and isoaaptamine and structural modifications thereof” (The Arizona Board of Regents, Acting for and on behalf of …, priority 2004, published 2005):
Values after ≈ are worked out from the molar mass of the structure shown. Structures can show the parent of a compound that is named as a salt. Where two headings read alike, the source gives them in different places.

How the values were obtained:
Enterobacter cloacae = test: Broth microdilution susceptibility assay, Enterobacter cloacae; type: cell-based
Staphylococcus aureus = test: Broth microdilution susceptibility assay, Staphylococcus aureus; type: cell-based
[1] = tested on: Stenotrophomonas maltophilia; test: Broth microdilution susceptibility assay, Stenotrophomonas maltophilia; type: cell-based; conditions: read-out: Range of minimum inhibitory concentration
Enterococcus faecalis = test: Broth microdilution susceptibility assay, Enterococcus faecalis; type: cell-based
Streptococcus pneumoniae = test: Broth microdilution susceptibility assay, Streptococcus pneumoniae; type: cell-based
Micrococcus luteus = test: Broth microdilution susceptibility assay, Micrococcus luteus; type: cell-based
[2] = tested on: murine P388 lymphocytic leukemia cell line and a selection of human cancer cell lines; test: Cancer cell growth inhibition, P388 and human cancer cell line panel (summary in words); type: cell-based
From the text: (§1) Biology The cancer cell growth inhibitory properties were examined using the murine P388 lymphocytic leukemia cell line and a selection of human cancer cell lines.

Cryptococcus neoformans = test: Broth microdilution susceptibility assay, Cryptococcus neoformans; type: cell-based
Neisseria gonorrhoeae = test: Broth microdilution susceptibility assay, Neisseria gonorrhoeae; type: cell-based
Candida albicans = test: Broth microdilution susceptibility assay, Candida albicans; type: cell-based
Escherichia coli = test: Broth microdilution susceptibility assay, Escherichia coli; type: cell-based
colon KM 20L2 = test: Cancer cell growth inhibition, colon KM 20L2; type: cell-based, human; conditions: Homo sapiens
In short: (§2)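 Growth inhibition in murine P388 leukemia and human cancer cell line panels (Arizona State University minipanel and NCI 60-cell screen).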

CNS SF-268 = test: Cancer cell growth inhibition, CNS SF-268; type: cell-based, human; conditions: Homo sapiens
Method: as §1
(§3) All of the synthetic products were evaluated against a minipanel of human cancer cell lines, the murine P388 lymphocytic leukemia cell line and a selection of microorganisms.

[3] = Antimicrobial activity in the presence of human serum; type: cell-based
From the text: The antimicrobial activity of phenols 15 and 18 in the presence of human serum was also investigated.

[4] = tested on: murine P388 lymphocytic leukemia cell line; test: Cancer cell growth inhibition, murine P388 lymphocytic leukemia cell line; type: cell-based; conditions: Mus musculus
In short: as §2

breast MCF-7 = test: Cancer cell growth inhibition, breast MCF-7; type: cell-based, human; conditions: Homo sapiens
Method: as §1, §3

prostrate DU-145 = test: Cancer cell growth inhibition, prostate DU-145; type: cell-based, human; conditions: Homo sapiens
Method: as §1, §3

lung NCI-H460 = test: Cancer cell growth inhibition, lung NCI-H460; type: cell-based, human; conditions: Homo sapiens
In short: as §2

pancreas BXPC-3 = test: Cancer cell growth inhibition, pancreas BXPC-3; type: cell-based, human; conditions: Homo sapiens
Method: as §1, §3

tubulin = test: Tubulin polymerization (assembly) inhibition; type: biochemical; conditions: b62 series; read-out: IC50 for inhibition of extent of tubulin assembly
Method: Only minimal inhibitory activity was observed. While compounds 15 and 8 did inhibit the rate of polymerization by over 50% at 40 μM (the highest concentration examined), an IC50 value for inhibition of assembly extent was obtained only for compound 18. […] Thus, it seems unlikely that the cytotoxic mechanism for these aaptamine analogs derives from an interaction with tubulin.
A number of the aaptamine derivatives whose synthesis is described here were examined for potential effects on tubulin assembly. These were compounds 2, 4, 5, 9a-c, and 10a-d. […] For comparison, in experiments performed contemporaneously, the potent colchicine site drug combretastatin A-4 yielded an IC50 value of about 2 μM.

[5] = Table 4, read-out: Range of minimum inhibitory concentration
[6] = Table 4, Stenotrophomonas maltophil
[7] = read-out: Range of minimum inhibitory concentration

COc1cc2ccnc3c2c(c1OC)N(C)C=C3 [Compound 14, 1-Methyl-8,9-dimethoxy-1H-benzo[de][1,6]naphthyridine trifluoromethane-sulfonate] showed an MIC (Enterobacter cloacae; [5]) greater than 64 µg/mL, an MIC (Staphylococcus aureus; [5]) greater than 64 µg/mL and an MIC [1, 6] greater than 64 µg/mL. It also gave an MIC (Enterococcus faecalis; [5]) greater than 64 µg/mL, an MIC (Streptococcus pneumoniae; [5]) of 64 µg/mL (≈ 264 µM) and an MIC (Micrococcus luteus; [5]) greater than 64 µg/mL. For the same compound, the “cancer cell growth inhibitory activity” value [2] was “marginal activity”, the MIC (Cryptococcus neoformans; [5]) was greater than 64 µg/mL and the MIC (Neisseria gonorrhoeae; [5]) was greater than 64 µg/mL. The MIC (Candida albicans; [5]) was greater than 64 µg/mL and the MIC (Escherichia coli; [5]) was greater than 64 µg/mL.
With Oc1cc2ccnc3c2c(c1O)NC=C3 [Compound 15, 8,9-Dihydroxy-1H-Benzo[de][1,6]naphthyridine hydrobromide] the MIC (Enterobacter cloacae; [5]) was greater than 64 µg/mL, the MIC (Staphylococcus aureus; [5]) was 4 to 8 µg/mL and the MIC [1, 6] was 32 µg/mL. The IC50 (colon KM 20L2; Table 3, colon KM 20L2, read-out: Cancer cell growth inhibitory ED50) was 0.3 µg/mL, the IC50 (CNS SF-268; Table 3, CNS SF-268, read-out: Cancer cell growth inhibitory ED50) was 0.8 µg/mL and the “minimum inhibitory concentrations in the presence of human serum versus absence of serum” value [3] was “identical or one 2-fold dilution lower”. It also gave an IC50 ([4]; P388, Table 3, leukemia P-388, read-out: Cancer cell growth inhibitory ED50) of 0.12 µg/mL, an MIC (Enterococcus faecalis; [5]) of 8 to 16 µg/mL and an IC50 (breast MCF-7; MCF7, Table 3, breast MCF-7, read-out: Cancer cell growth inhibitory ED50) of 0.31 µg/mL. The MIC (Streptococcus pneumoniae; [5]) was 8 µg/mL, the MIC (Micrococcus luteus; [5]) was 4 µg/mL and the IC50 (prostrate DU-145; Table 3, prostrate DU-145, read-out: Cancer cell growth inhibitory ED50) was 1.1 µg/mL. The MIC (Cryptococcus neoformans; [5]) was 32 µg/mL, the MIC (Neisseria gonorrhoeae; [5]) was greater than 0.5 µg/mL and the IC50 (lung NCI-H460; Table 3, lung NCI-H460, read-out: Cancer cell growth inhibitory ED50) was 0.52 µg/mL. For the same compound, the IC50 (pancreas BXPC-3; Table 3, pancreas BXPC-3, read-out: Cancer cell growth inhibitory ED50) was 0.33 µg/mL, the MIC (Candida albicans; [5]) was 64 µg/mL and the MIC (Escherichia coli; [5]) was 16 to 64 µg/mL.
Compound COc1cc2ccnc3c2c(c1O)NC=C3 [Compound 18, 9-Demethylaaptamine hydrobromide] has an MIC (Enterobacter cloacae; [7]) greater than 64 µg/mL, an MIC (Staphylococcus aureus; [7]) of 16 µg/mL and an MIC [1] greater than 64 µg/mL. For the same compound, the IC50 (colon KM 20L2; KM-20L2, read-out: Cancer cell growth inhibitory ED50) was 1.7 µg/mL, the IC50 (CNS SF-268; SF-268, read-out: Cancer cell growth inhibitory ED50) was 1.4 µg/mL and the “minimum inhibitory concentrations in the presence of human serum versus absence of serum” value [3] was “identical or one 2-fold dilution lower”. The IC50 (tubulin) was 37 ± 4 µM, the IC50 ([4]; P388, read-out: Cancer cell growth inhibitory ED50) was 0.22 µg/mL and the MIC (Enterococcus faecalis; [7]) was 8 to 32 µg/mL. The IC50 (breast MCF-7; MCF7, read-out: Cancer cell growth inhibitory ED50) was 0.66 µg/mL, the MIC (Streptococcus pneumoniae; [7]) was 2 to 4 µg/mL and the MIC (Micrococcus luteus; [7]) was 8 µg/mL. For the same compound, the IC50 (prostrate DU-145; DU-145, read-out: Cancer cell growth inhibitory ED50) was 1.8 µg/mL, the MIC (Cryptococcus neoformans; [7]) was 32 µg/mL and the MIC (Neisseria gonorrhoeae; [7]) was greater than 0.5 µg/mL. For the same compound, the IC50 (lung NCI-H460; NCI-H460, read-out: Cancer cell growth inhibitory ED50) was 2 µg/mL, the IC50 (pancreas BXPC-3; BXPC-3, read-out: Cancer cell growth inhibitory ED50) was 1.6 µg/mL and the MIC (Candida albicans; [7]) was 64 µg/mL. For the same compound, the MIC (Escherichia coli; [7]) was 32 to 64 µg/mL.
